How the values were obtained:
Experiment in all cases: Post-emergence efficacy, Method A
Format in all cases: in vivo
[1] = tested on: Echinochloa crus-galli (ECHCG); conditions: Application rate 500 g/Ha, evaluated after 13 days; for Control of weed species after post-emergence application, ECHCG: 100=total damage to plant, 0=no damage; for Control of weed species ECHCG after post-emergence application (100=total damage to plant; 0=no damage to plant): Method A
Description: (§1) Seeds of a variety of test species were sown in standard soil in pots. After cultivation for 14 days (post-emergence) under controlled conditions in a glasshouse (at 24/16° C., day/night; 14 hours light; 65% humidity), the plants were sprayed with an aqueous spray solution derived from the dissolution of the technical active ingredient formula (I) in a small amount of acetone and a special solvent and emulsifier mixture referred to as IF50 (11.12% Emulsogen EL360 TM+44.44% N-methylpyrrolidone+44.44% Dowanol DPM glycol ether), to create a 50 g/l solution which was then diluted to required concentration using 0.25% or 1% Empicol ESC70 (Sodium lauryl ether sulphate)+1% ammonium sulphate as diluent.
(§2) The test plants were then grown in a glasshouse under controlled conditions (at 24/16° C., day/night; 14 hours light; 65% humidity) and watered twice daily. After 13 days the test was evaluated (100=total damage to plant; 0=no damage to plant).
(§3) Ipomoea hederacea (IPOHE), Euphorbia heterophylla (EPHHL), Chenopodium album (CHEAL), Amaranthus palmeri (AMAPA), Lolium perenne (LOLPE), Digitaria sanguinalis (DIGSA), Eleusine indica (ELEIN), Echinochloa crus-galli (ECHCG), Setaria faberi (SETFA)

[2] = tested on: Eleusine indica (ELEIN); conditions: Application rate 500 g/Ha, evaluated after 13 days; for Control of weed species after post-emergence application, ELEIN: 100=total damage to plant, 0=no damage; for Control of weed species ELEIN after post-emergence application (100=total damage to plant; 0=no damage to plant): Method A
Description: as §1, §2, §3

[3] = tested on: Chenopodium album (CHEAL); conditions: Application rate 500 g/Ha, evaluated after 13 days; for Control of weed species after post-emergence application, CHEAL: 100=total damage to plant, 0=no damage; for Control of weed species CHEAL after post-emergence application (100=total damage to plant; 0=no damage to plant): Method A
Description: as §1, §2, §3

[4] = tested on: Amaranthus palmeri (AMAPA); conditions: Application rate 500 g/Ha, evaluated after 13 days; for Control of weed species after post-emergence application, AMAPA: 100=total damage to plant, 0=no damage; for Control of weed species AMAPA after post-emergence application (100=total damage to plant; 0=no damage to plant): Method A
Description: as §1, §2, §3

[5] = tested on: Setaria faberi (SETFA); conditions: Application rate 500 g/Ha, evaluated after 13 days; for Control of weed species after post-emergence application, SETFA: 100=total damage to plant, 0=no damage; for Control of weed species SETFA after post-emergence application (100=total damage to plant; 0=no damage to plant): Method A
Description: as §1, §2, §3

[6] = tested on: Euphorbia heterophylla (EPHHL); conditions: Application rate 500 g/Ha, evaluated after 13 days; for Control of weed species after post-emergence application, EPHHL: 100=total damage to plant, 0=no damage; for Control of weed species EPHHL after post-emergence application (100=total damage to plant; 0=no damage to plant): Method A
Description: as §1, §2, §3

[7] = tested on: Digitaria sanguinalis (DIGSA); conditions: Application rate 500 g/Ha, evaluated after 13 days; for Control of weed species after post-emergence application, DIGSA: 100=total damage to plant, 0=no damage; for Control of weed species DIGSA after post-emergence application (100=total damage to plant; 0=no damage to plant): Method A
Description: as §1, §2, §3

Compound: CC(C)(CC(=O)O)[n+]1ccc(-c2ccncn2)cn1.O=C([O-])C(F)(F)F [Compound A189]
- Control of weed species after post-emergence application, ECHCG [1]: 80
- Control of weed species after post-emergence application, ELEIN [2]: 90
- Control of weed species after post-emergence application, CHEAL [3]: 100
- Control of weed species after post-emergence application, AMAPA [4]: 100
- Control of weed species after post-emergence application, SETFA [5]: 70
- Control of weed species after post-emergence application, EPHHL [6]: 90
- Control of weed species after post-emergence application, DIGSA [7]: 50

Compound: O=C(O)CC[n+]1ccc(-c2ncccc2C(F)(F)F)cn1.O=C([O-])C(F)(F)F [Compound A128]
- Control of weed species ECHCG after post-emergence application (100=total damage to plant; 0=no damage to plant) [1]: 30
- Control of weed species ELEIN after post-emergence application (100=total damage to plant; 0=no damage to plant) [2]: 50
- Control of weed species CHEAL after post-emergence application (100=total damage to plant; 0=no damage to plant) [3]: 10
- Control of weed species AMAPA after post-emergence application (100=total damage to plant; 0=no damage to plant) [4]: 30
- Control of weed species SETFA after post-emergence application (100=total damage to plant; 0=no damage to plant) [5]: 30
- Control of weed species EPHHL after post-emergence application (100=total damage to plant; 0=no damage to plant) [6]: 0
- Control of weed species DIGSA after post-emergence application (100=total damage to plant; 0=no damage to plant) [7]: 30

Compound: Cc1n[n+](CCC(=O)O)ccc1-c1ncccn1.[Cl-] [Compound A133]
- Control of weed species ECHCG after post-emergence application (100=total damage to plant; 0=no damage to plant) [1]: 70
- Control of weed species ELEIN after post-emergence application (100=total damage to plant; 0=no damage to plant) [2]: 90
- Control of weed species CHEAL after post-emergence application (100=total damage to plant; 0=no damage to plant) [3]: 40
- Control of weed species AMAPA after post-emergence application (100=total damage to plant; 0=no damage to plant) [4]: 60
- Control of weed species SETFA after post-emergence application (100=total damage to plant; 0=no damage to plant) [5]: 90
- Control of weed species EPHHL after post-emergence application (100=total damage to plant; 0=no damage to plant) [6]: 20
- Control of weed species DIGSA after post-emergence application (100=total damage to plant; 0=no damage to plant) [7]: 70

Compound: CC(CC(=O)O)[n+]1ccc(-c2ncccn2)cn1.O=C([O-])C(F)(F)F (stereo not drawn) [Compound A40, 3-(4-pyrimidin-2-ylpyridazin-1-ium-1-yl)butanoic acid 2,2,2-trifluoroacetate]
- Control of weed species ECHCG after post-emergence application (100=total damage to plant; 0=no damage to plant) [1]: 90
- Control of weed species ELEIN after post-emergence application (100=total damage to plant; 0=no damage to plant) [2]: 90
- Control of weed species CHEAL after post-emergence application (100=total damage to plant; 0=no damage to plant) [3]: 70
- Control of weed species AMAPA after post-emergence application (100=total damage to plant; 0=no damage to plant) [4]: 90
- Control of weed species SETFA after post-emergence application (100=total damage to plant; 0=no damage to plant) [5]: 100
- Control of weed species EPHHL after post-emergence application (100=total damage to plant; 0=no damage to plant) [6]: 90
- Control of weed species DIGSA after post-emergence application (100=total damage to plant; 0=no damage to plant) [7]: 90

Compound: O=C(O)CC[n+]1ccc(-c2ccccn2)cn1.O=C([O-])C(F)(F)F [Compound A148]
- Control of weed species ECHCG after post-emergence application (100=total damage to plant; 0=no damage to plant) [1]: 50
- Control of weed species ELEIN after post-emergence application (100=total damage to plant; 0=no damage to plant) [2]: 40
- Control of weed species CHEAL after post-emergence application (100=total damage to plant; 0=no damage to plant) [3]: 40
- Control of weed species AMAPA after post-emergence application (100=total damage to plant; 0=no damage to plant) [4]: 100
- Control of weed species SETFA after post-emergence application (100=total damage to plant; 0=no damage to plant) [5]: 50
- Control of weed species EPHHL after post-emergence application (100=total damage to plant; 0=no damage to plant) [6]: 60
- Control of weed species DIGSA after post-emergence application (100=total damage to plant; 0=no damage to plant) [7]: 50

Compound: O=C(O)CC[n+]1ccc(-c2ccnc(C(F)(F)F)c2)cn1.O=C([O-])C(F)(F)F [Compound A166]
- Control of weed species after post-emergence application, ECHCG [1]: 50
- Control of weed species after post-emergence application, ELEIN [2]: 60
- Control of weed species after post-emergence application, CHEAL [3]: 50
- Control of weed species after post-emergence application, AMAPA [4]: 30
- Control of weed species after post-emergence application, SETFA [5]: 40
- Control of weed species after post-emergence application, EPHHL [6]: 60
- Control of weed species after post-emergence application, DIGSA [7]: 70

Compound: O=C(O)CC[n+]1ccc(-c2ccnc(O)n2)cn1.O=C([O-])C(F)(F)F [Compound A86]
- Control of weed species ECHCG after post-emergence application (100=total damage to plant; 0=no damage to plant) [1]: 20
- Control of weed species ELEIN after post-emergence application (100=total damage to plant; 0=no damage to plant) [2]: 10
- Control of weed species CHEAL after post-emergence application (100=total damage to plant; 0=no damage to plant) [3]: 40
- Control of weed species AMAPA after post-emergence application (100=total damage to plant; 0=no damage to plant) [4]: 30
- Control of weed species SETFA after post-emergence application (100=total damage to plant; 0=no damage to plant) [5]: 40
- Control of weed species EPHHL after post-emergence application (100=total damage to plant; 0=no damage to plant) [6]: 50
- Control of weed species DIGSA after post-emergence application (100=total damage to plant; 0=no damage to plant) [7]: 30

Compound: O=C(O)CC[n+]1ccc(-c2ccnc(C(F)(F)F)n2)cn1.O=C([O-])C(F)(F)F [Compound A118]
- Control of weed species ECHCG after post-emergence application (100=total damage to plant; 0=no damage to plant) [1]: 40
- Control of weed species ELEIN after post-emergence application (100=total damage to plant; 0=no damage to plant) [2]: 70
- Control of weed species CHEAL after post-emergence application (100=total damage to plant; 0=no damage to plant) [3]: 80
- Control of weed species AMAPA after post-emergence application (100=total damage to plant; 0=no damage to plant) [4]: 80
- Control of weed species SETFA after post-emergence application (100=total damage to plant; 0=no damage to plant) [5]: 70
- Control of weed species EPHHL after post-emergence application (100=total damage to plant; 0=no damage to plant) [6]: 90
- Control of weed species DIGSA after post-emergence application (100=total damage to plant; 0=no damage to plant) [7]: 90

Compound: CC(C)OC(=O)CC[n+]1ccc(-c2ncccn2)cn1.O=C([O-])C(F)(F)F [Compound A81, isopropyl 3-(4-pyrimidin-2-ylpyridazin-1-ium-1-yl)propanoate 2,2,2-trifluoroacetate]
- Control of weed species ECHCG after post-emergence application (100=total damage to plant; 0=no damage to plant) [1]: 90
- Control of weed species ELEIN after post-emergence application (100=total damage to plant; 0=no damage to plant) [2]: 80
- Control of weed species CHEAL after post-emergence application (100=total damage to plant; 0=no damage to plant) [3]: 90
- Control of weed species AMAPA after post-emergence application (100=total damage to plant; 0=no damage to plant) [4]: 100
- Control of weed species SETFA after post-emergence application (100=total damage to plant; 0=no damage to plant) [5]: 90
- Control of weed species EPHHL after post-emergence application (100=total damage to plant; 0=no damage to plant) [6]: 100
- Control of weed species DIGSA after post-emergence application (100=total damage to plant; 0=no damage to plant) [7]: 100

Compound: O=C(O)C(O)C[n+]1ccc(-c2ncccn2)cn1.O=C([O-])C(F)(F)F (stereo not drawn) [Compound A180]
- Control of weed species after post-emergence application, ECHCG [1]: 70
- Control of weed species after post-emergence application, ELEIN [2]: 90
- Control of weed species after post-emergence application, CHEAL [3]: 90
- Control of weed species after post-emergence application, AMAPA [4]: 100
- Control of weed species after post-emergence application, SETFA [5]: 70
- Control of weed species after post-emergence application, EPHHL [6]: 80
- Control of weed species after post-emergence application, DIGSA [7]: 60

Compound: O=C(O)CC[n+]1ccc(-c2ncc(C(F)(F)F)cn2)cn1.O=C([O-])C(F)(F)F [Compound A129]
- Control of weed species ECHCG after post-emergence application (100=total damage to plant; 0=no damage to plant) [1]: 90
- Control of weed species ELEIN after post-emergence application (100=total damage to plant; 0=no damage to plant) [2]: 40
- Control of weed species CHEAL after post-emergence application (100=total damage to plant; 0=no damage to plant) [3]: 50
- Control of weed species AMAPA after post-emergence application (100=total damage to plant; 0=no damage to plant) [4]: 70
- Control of weed species SETFA after post-emergence application (100=total damage to plant; 0=no damage to plant) [5]: 60
- Control of weed species EPHHL after post-emergence application (100=total damage to plant; 0=no damage to plant) [6]: 70
- Control of weed species DIGSA after post-emergence application (100=total damage to plant; 0=no damage to plant) [7]: 60

Compound: O=C(O)CC[n+]1ccc(-c2cncc(C(F)(F)F)n2)cn1.O=C([O-])C(F)(F)F [Compound A120]
- Control of weed species ECHCG after post-emergence application (100=total damage to plant; 0=no damage to plant) [1]: 40
- Control of weed species ELEIN after post-emergence application (100=total damage to plant; 0=no damage to plant) [2]: 30
- Control of weed species CHEAL after post-emergence application (100=total damage to plant; 0=no damage to plant) [3]: 70
- Control of weed species AMAPA after post-emergence application (100=total damage to plant; 0=no damage to plant) [4]: 90
- Control of weed species SETFA after post-emergence application (100=total damage to plant; 0=no damage to plant) [5]: 40
- Control of weed species EPHHL after post-emergence application (100=total damage to plant; 0=no damage to plant) [6]: 50
- Control of weed species DIGSA after post-emergence application (100=total damage to plant; 0=no damage to plant) [7]: 40

Source: patent US11618743B2, “Herbicidal compounds” (SYNGENTA PARTICIPATIONS AG, priority 2017, dated 2023)
